Where two headings read alike, the source gives them in different places.
Columns and labels:
[1] = system: corn; assay: Test A pre-/postemergence herbicide test; assay type: in vivo, Zea mays; settings: for Corn plant response rating: Preemergence, visual rating on 0 to 100 scale (0 no effect, 100 complete control)
Summary of the method: (§1)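 Planted in loam–sand blend; treated the same day preemergence by directed soil spray, while separately grown plants at one- to two-leaf stage got postemergence spray. Compared visually with untreated controls after approximately 10 days; 100 means complete control.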

[2] = system: barnyardgrass; assay: Test C pre-/postemergence herbicide test; assay type: in vivo, Echinochloa crus-galli; settings: for Barnyardgrass plant response rating: scale 0 to 100, 0 is no effect and 100 is complete control
Summary of the method: (§2)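 Test compounds, formulated in a surfactant-containing non-phytotoxic solvent blend, are applied to seeded loam/sand soil (preemergence) and to young plants at the 1- to 4-leaf stage in peat-based medium (postemergence). Plants stay 13 to 15 days under greenhouse conditions, then are scored visually relative to controls, 0 = no effect, 100 = complete control.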

[3] = system: crabgrass, large; assay: Test A pre-/postemergence herbicide test; assay type: in vivo, Digitaria sanguinalis; settings: for Crabgrass, Large plant response rating: Preemergence, visual rating on 0 to 100 scale (0 no effect, 100 complete control)
Summary of the method: as §1

[4] = system: chickweed; assay: Test C postemergence herbicide test; assay type: in vivo, Stellaria media
Summary of the method: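 Greenhouse pot plants at 2 to 18 cm height (1- to 4-leaf stage) received a postemergence application of formulated test chemical. Visual ratings against untreated controls were made after 13 to 15 days, on a 0 (no effect) to 100 (complete control) scale.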

[5] = system: johnsongrass; assay: Test C pre-/postemergence herbicide test; assay type: in vivo, Sorghum halepense; settings: for Johnsongrass plant response rating: scale 0 to 100, 0 is no effect and 100 is complete control
Summary of the method: as §2

[6] = system: ryegrass, Italian; assay: Test C pre-/postemergence herbicide test; assay type: in vivo, Lolium multiflorum; settings: for Ryegrass, Italian plant response rating: scale 0 to 100, 0 is no effect and 100 is complete control
Summary of the method: as §2

[7] = system: morningglory; assay: Test C pre-/postemergence herbicide test; assay type: in vivo, Ipomoea coccinea; settings: for Morningglory plant response rating: scale 0 to 100, 0 is no effect and 100 is complete control
Summary of the method: as §2

[8] = system: kochia; assay: Test C pre-/postemergence herbicide test; assay type: in vivo, Kochia scoparia; settings: Postemergence
Summary of the method: as §2

[9] = Postemergence, 125 g ai/ha, 0 to 100 scale, 0 no effect, 100 complete control
[10] = Postemergence, 500 g ai/ha, 0 to 100 scale (0 no effect, 100 complete control)
[11] = preemergence, 500 g ai/ha, 0 to 100 scale
[12] = Postemergence, 31 g ai/ha, scale 0 (no effect) to 100 (complete control)
[13] = Postemergence, 62 g ai/ha, scale 0 to 100 (0 no effect, 100 complete control)
[14] = Postemergence, 125 g ai/ha, scale 0 to 100 (0 no effect, 100 complete control)
[15] = Postemergence, 250 g ai/ha, scale 0 to 100 (0 no effect, 100 complete control)
[16] = Preemergence, 62 g ai/ha, scale 0 to 100
[17] = Preemergence, 125 g ai/ha, scale 0 to 100 (0 no effect, 100 complete control)
[18] = 31 g ai/ha, scale 0 (no effect) to 100 (complete control)
[19] = 62 g ai/ha, scale 0 to 100 (0 no effect, 100 complete control)
[20] = 125 g ai/ha, scale 0 to 100 (0 no effect, 100 complete control)
[21] = 250 g ai/ha, scale 0 to 100 (0 no effect, 100 complete control)
[22] = Postemergence, 1000 g ai/ha, 0 to 100 scale (0 no effect, 100 complete control)
[23] = preemergence, 1000 g ai/ha, 0 to 100 scale

## O=C1NCC(c2ccc(F)c(F)c2)C1C(=O)Nc1cccc(F)c1F (racemic) [Compound 101]
[1]; [9]
  Plant response rating, Corn: 0
[1]; [10]
  Plant response rating, Corn: 50
[1]; 125 g ai/ha
  Corn plant response rating: 0
[1]; [11]
  Plant response rating, Corn: 0
[2]; [12]
  Plant response rating, Barnyardgrass: 0
[2]; [13]
  Plant response rating, Barnyardgrass: 35
[2]; [14]
  Plant response rating, Barnyardgrass: 65
[2]; [15]
  Plant response rating, Barnyardgrass: 90
[2]; Preemergence, 31 g ai/ha
  Barnyardgrass plant response rating: 90
[2]; [16]
  Plant response rating, Barnyardgrass: 95
[2]; [17]
  Plant response rating, Barnyardgrass: 95
[2]; Preemergence, 250 g ai/ha
  Plant response rating (scale of 0 to 100; 0 is no effect, 100 is complete control), Barnyardgrass: 95
[3]; [9]
  Plant response rating, Crabgrass, Large: 80
[3]; [10]
  Plant response rating, Crabgrass, Large: 80
[3]; 125 g ai/ha
  Crabgrass, Large plant response rating: 90
[3]; [11]
  Plant response rating, Crabgrass, Large: 100
[4]; [18]
  Plant response rating, Chickweed: 35
[4]; [19]
  Plant response rating, Chickweed: 60
[4]; [20]
  Plant response rating, Chickweed: 70
[4]; [21]
  Plant response rating, Chickweed: 80
[5]; [12]
  Plant response rating, Johnsongrass: 0
[5]; [13]
  Plant response rating, Johnsongrass: 0
[5]; [14]
  Plant response rating, Johnsongrass: 0
[5]; [15]
  Plant response rating, Johnsongrass: 0
[5]; Preemergence, 31 g ai/ha
  Johnsongrass plant response rating: 0
[5]; [16]
  Plant response rating, Johnsongrass: 15
[5]; [17]
  Plant response rating, Johnsongrass: 55
[5]; Preemergence, 250 g ai/ha
  Plant response rating (scale of 0 to 100), Johnsongrass: 75
[6]; [12]
  Plant response rating, Ryegrass, Italian: 0
[6]; [13]
  Plant response rating, Ryegrass, Italian: 0
[6]; [14]
  Plant response rating, Ryegrass, Italian: 0
[6]; [15]
  Plant response rating, Ryegrass, Italian: 0
[6]; Preemergence, 31 g ai/ha
  Ryegrass, Italian plant response rating: 30
[6]; [16]
  Plant response rating, Ryegrass, Italian: 15
[6]; [17]
  Plant response rating, Ryegrass, Italian: 30
[6]; Preemergence, 250 g ai/ha
  Plant response rating (scale of 0 to 100), Ryegrass, Italian: 50
[7]; [12]
  Plant response rating, Morningglory: 15
[7]; [13]
  Plant response rating, Morningglory: 15
[7]; [14]
  Plant response rating, Morningglory: 25
[7]; [15]
  Plant response rating, Morningglory: 55
[7]; Preemergence, 31 g ai/ha
  Morningglory plant response rating: 0
[7]; [16]
  Plant response rating, Morningglory: 0
[7]; [17]
  Plant response rating, Morningglory: 30
[7]; Preemergence, 250 g ai/ha
  Plant response rating (scale of 0 to 100), Morningglory: 25
[8]; [18]
  Plant response rating, Kochia: 45
[8]; [19]
  Plant response rating, Kochia: 30
[8]; [20]
  Plant response rating, Kochia: 50
[8]; [21]
  Plant response rating, Kochia: 50

## Cc1c(F)cccc1NC(=O)C1C(=O)NCC1c1ccc(F)c(F)c1 (racemic) [Compound 106]
[1]; [22]
  Plant response rating, Corn: 50
[1]; [23]
  Plant response rating, Corn: 30
[2]; [12]
  Plant response rating, Barnyardgrass: 0
[2]; [13]
  Plant response rating, Barnyardgrass: 0
[2]; [14]
  Plant response rating, Barnyardgrass: 0
[2]; [15]
  Plant response rating, Barnyardgrass: 30
[3]; [22]
  Plant response rating, Crabgrass, Large: 90
[3]; [23]
  Plant response rating, Crabgrass, Large: 90
[4]; [18]
  Plant response rating, Chickweed: 0
[4]; [19]
  Plant response rating, Chickweed: 0
[4]; [20]
  Plant response rating, Chickweed: 5
[4]; [21]
  Plant response rating, Chickweed: 30
[5]; [12]
  Plant response rating, Johnsongrass: 0
[5]; [13]
  Plant response rating, Johnsongrass: 0
[5]; [14]
  Plant response rating, Johnsongrass: 0
[5]; [15]
  Plant response rating, Johnsongrass: 0
[6]; [12]
  Plant response rating, Ryegrass, Italian: 0
[6]; [13]
  Plant response rating, Ryegrass, Italian: 0
[6]; [14]
  Plant response rating, Ryegrass, Italian: 0
[6]; [15]
  Plant response rating, Ryegrass, Italian: 5
[7]; [12]
  Plant response rating, Morningglory: 0
[7]; [13]
  Plant response rating, Morningglory: 5
[7]; [14]
  Plant response rating, Morningglory: 10
[7]; [15]
  Plant response rating, Morningglory: 5
[8]; [18]
  Plant response rating, Kochia: 0
[8]; [19]
  Plant response rating, Kochia: 40
[8]; [20]
  Plant response rating, Kochia: 30
[8]; [21]
  Plant response rating, Kochia: 35

## O=C1NCC(c2ccc(C(F)(F)F)cc2)C1C(=O)Nc1cccc(F)c1F (stereo not shown) [Compound 80, N-(2,3-difluorophenyl)-2-oxo-4-[4-(trifluoromethyl)phenyl]-3-pyrrolidinecarboxamide]
[1]; 125 g ai/ha
  Corn plant response rating: 0
[1]; Zea mays, post-emergence, 240 h, Postemergence, 125 g ai/ha, 0 to 100 scale, 0 no effect, 100 complete control
  Corn plant response rating (crop injury, 0 = no effect, 100 = complete kill) at 125 g/ha: 30%
[1]; Zea mays, post-emergence, 240 h, Postemergence, 500 g ai/ha, 0 to 100 scale (0 no effect, 100 complete control)
  Corn plant response rating (crop injury, 0 = no effect, 100 = complete kill) at 500 g/ha: 60%
[1]; Zea mays, pre-emergence, 240 h, preemergence, 500 g ai/ha, 0 to 100 scale
  Corn plant response rating (crop injury, 0 = no effect, 100 = complete kill) at 500 g/ha: 0%
[2]; [12]
  Plant response rating, Barnyardgrass: 0
[2]; [13]
  Plant response rating, Barnyardgrass: 20
[2]; [14]
  Plant response rating, Barnyardgrass: 35
[2]; [15]
  Plant response rating, Barnyardgrass: 70
[2]; Preemergence, 31 g ai/ha
  Barnyardgrass plant response rating: 85
[2]; [16]
  Plant response rating, Barnyardgrass: 95
[2]; [17]
  Plant response rating, Barnyardgrass: 95
[2]; Preemergence, 250 g ai/ha
  Plant response rating (scale of 0 to 100; 0 is no effect, 100 is complete control), Barnyardgrass: 95
[3]; Digitaria sanguinalis, post-emergence, 240 h, Postemergence, 125 g ai/ha, 0 to 100 scale, 0 no effect, 100 complete control, read-out: Plant response rating, Crabgrass, Large
  pest or weed control at 125 g/ha: 80%
[3]; Digitaria sanguinalis, post-emergence, 240 h, Postemergence, 500 g ai/ha, 0 to 100 scale (0 no effect, 100 complete control), read-out: Plant response rating, Crabgrass, Large
  pest or weed control at 500 g/ha: 90%
[3]; Digitaria sanguinalis, pre-emergence, 240 h, preemergence, 500 g ai/ha, 0 to 100 scale, read-out: Plant response rating, Crabgrass, Large
  pest or weed control at 500 g/ha: 90%
[3]; 125 g ai/ha
  Crabgrass, Large plant response rating: 90
[4]; [18]
  Plant response rating, Chickweed: 70
[4]; [19]
  Plant response rating, Chickweed: 85
[4]; [20]
  Plant response rating, Chickweed: 90
[4]; [21]
  Plant response rating, Chickweed: 90
[5]; [12]
  Plant response rating, Johnsongrass: 5
[5]; [13]
  Plant response rating, Johnsongrass: 5
[5]; [14]
  Plant response rating, Johnsongrass: 5
[5]; [15]
  Plant response rating, Johnsongrass: 10
[5]; Preemergence, 31 g ai/ha
  Johnsongrass plant response rating: 0
[5]; [16]
  Plant response rating, Johnsongrass: 0
[5]; [17]
  Plant response rating, Johnsongrass: 30
[5]; Preemergence, 250 g ai/ha
  Plant response rating (scale of 0 to 100), Johnsongrass: 55
[6]; [12]
  Plant response rating, Ryegrass, Italian: 0
[6]; [13]
  Plant response rating, Ryegrass, Italian: 0
[6]; [14]
  Plant response rating, Ryegrass, Italian: 0
[6]; [15]
  Plant response rating, Ryegrass, Italian: 0
[6]; Preemergence, 31 g ai/ha
  Ryegrass, Italian plant response rating: 0
[6]; [16]
  Plant response rating, Ryegrass, Italian: 40
[6]; [17]
  Plant response rating, Ryegrass, Italian: 40
[6]; Preemergence, 250 g ai/ha
  Plant response rating (scale of 0 to 100), Ryegrass, Italian: 45
[7]; [12]
  Plant response rating, Morningglory: 0
[7]; [13]
  Plant response rating, Morningglory: 5
[7]; [14]
  Plant response rating, Morningglory: 5
[7]; [15]
  Plant response rating, Morningglory: 5
[7]; Preemergence, 31 g ai/ha
  Morningglory plant response rating: 0
[7]; [16]
  Plant response rating, Morningglory: 0
[7]; [17]
  Plant response rating, Morningglory: 20
[7]; Preemergence, 250 g ai/ha
  Plant response rating (scale of 0 to 100), Morningglory: 20
[8]; [18]
  Plant response rating, Kochia: 30
[8]; [19]
  Plant response rating, Kochia: 55
[8]; [20]
  Plant response rating, Kochia: 65
[8]; [21]
  Plant response rating, Kochia: 65

Reference: patent US10294202B2, “Pyrrolidinones as herbicides” (FMC Corporation, priority 2013, dated 2019)
